Where two headings read alike, the source gives them in different places.
Experiments:
NSCLC = details: cited from earlier work; for median OS with maintenance therapy: non-squamous NSCLC patients, maintenance after platinum doublet
[1] = CA184022 study of ipilimumab; format: in vivo, human
Description: Similarly, ipilimumab at 10 mg/kg has been safely administered over a 90 minute duration. In the CA184022 study, where ipilimumab was administered up to a dose of 10 mg/kg, on-study drug related hypersensitivity events (Grade 1-2) were reported in 1 (1.4%) subject in the 0.3 mg/kg and in 2 (2.8%) subjects in the 10 mg/kg group. […] Ipilimumab 10 mg/kg monotherapy has also been safely administered as 90 minute infusion in large phase 3 studies in prostate cancer (CA184043) and as adjuvant therapy for stage 3 melanoma (CA184029), with infusion reactions occurring in subjects. Administering 1 mg/kg of ipilimumab represents one-tenth of the 10 mg/kg dose.

[2] = test system: chemotherapy-naive advanced NSCLC; experiment: CA209012 Phase 1 study, nivolumab monotherapy and nivolumab plus ipilimumab, first line; format: in vivo, human
Description: Nivolumab monotherapy at 3 mg/kg every 2 weeks has been evaluated in one of several cohorts of chemotherapy-naive patients with advanced NSCLC in study CA209012. Results from this cohort (n=52), including 13 subjects with squamous histology and 39 subjects with non-squamous histology, show an overall response rate (ORR) of 23% and a disease control rate (DCR) of 50%. The PFS rate at 24 weeks is 41%, with a median PFS of 16 weeks. The OS rate at 12 months is 74%, and the median overall survival (OS) is 22.6 months. The majority of responses have been durable, with the median duration of response not reached. In contrast, the median OS for patients with non-squamous histology who receive platinum doublet chemotherapy is 13 months, and for those with squamous histology is 10 months. (Ellis et al. J Clin Oncol (2014) 32:1277-1280.)
The nivolumab plus ipilimumab combination has been also evaluated at several different doses and schedules as first line therapy in patients with advanced NSCLC in CA209012, an ongoing Phase 1 study of nivolumab as monotherapy and in combination with a variety of agents. Early cohorts evaluated 2 different dosing schedules: nivolumab 1 mg/kg+ipilimumab 3 mg/kg, every 3 weeks for four cycles as induction, followed by nivolumab 3 mg/kg every 2 weeks; or nivolumab 3 mg/kg+ipilimumab 1 mg/kg, every 3 weeks for four cycles as induction, followed by nivolumab 3 mg/kg every 2 weeks.
Thus, a third combination cohort was initiated: nivolumab 1 mg/kg+ipilimumab 1 mg/kg every 3 weeks (“1+1”) for 4 cycles as induction, followed by nivolumab 3 mg/kg every 2 weeks as maintenance. This dosing regimen has been much better tolerated with only 13% of subjects experiencing treatment-related AEs leading to discontinuation. […] The ORR is 16%, and the DCR is 58%. The PFS rate at 24 weeks is 55% with a median PFS of 46.1 weeks. The OS rate at 12 months is 63%, and the median OS is not reached. Activity has been observed in patients with both PD-L1 positive (PD-L1+) and PD-L1 negative (PD-L1−) tumors. […]
Analyses based on archival specimens for subjects in CA209012 have shown that subjects with both PD-L1+(IHC greater than or equal to 5%) and PD-L1 tumors may benefit from treatment with nivolumab. […] However, the disease control rate (DCR, CR+PR+SD) was 54% for those with PD-L1+ tumors and 50% for those with PD-L1− tumors. […] Again there was less of a difference in the DCR between the 2 groups: 53% for those with PD-L1+ tumors and 51% for those with PD-L1− tumors. For subjects receiving nivolumab monotherapy, the PFS rate at 24 weeks was 40% and 45% for patients with PD-L1+ and PD-L1− tumors respectively; the median OS was 19.1 months in subjects with PD-L1+ tumors and not reached in subjects with PD-L1− tumors. For subjects receiving nivolumab plus ipilimumab, the median PFS was 21.7 weeks and 12.4 weeks in PD-L1+ and PD-L1− tumors respectively; the median OS was 21.5 months in subjects with PD-L1+ tumors and 19.4 months in subjects with PD-L1− tumors. […]

[3] = test system: second line or later NSCLC; details: 3 mg/kg dose, cited from earlier work
[4] = test system: CMV specific memory T cells; experiment: CMV re-stimulation assay with human PBMC; format: cell-based; details: dose-dependent, versus isotype-matched control
Excerpt: (Topalian S L et al. N Eng J Med 2012; 366: 2443-54.)

[5] = nivolumab monotherapy tolerability across clinical studies; format: in vivo
[6] = test system: metastatic squamous cell NSCLC; details: cited from earlier work
[7] = nivolumab pharmacokinetics, population pharmacokinetic (PPK) analysis; format: in vivo, human; details: for Cavgss Geo. Mean / Cmaxss Geo. Mean / Cminss Geo. Mean: geometric mean (cv %)
Description: Nivolumab monotherapy has been studied in NSCLC patient population in studies CA209003, CA209063, CA209017, and CA209057 with body weight normalized dosing (mg/kg). Nivolumab pharmacokinetics (PK) and exposures of subjects in these studies have been characterized by population pharmacokinetic (PPK) analysis of data collected these studies, together with PK data from several phase 1, 2, and 3 clinical studies of nivolumab monotherapy in solid tumors. Nivolumab PK was determined to be linear, with dose proportional exposures over a dose range of 0.1 to 10 mg/kg. […] Conversely, given the relationship between nivolumab PK and body weight, a flat dose is expected to lead to lower exposures in heavier patients, relative to the exposures in lighter patients.
Table 3 presents summary statistics of the estimated nivolumab steady-state trough, peak and time-averaged concentration (Cminss, Cmaxss, and Cavgss, respectively) in NSCLC subjects receiving 3 mg/kg, together with corresponding statistics of exposures predicted for a flat nivolumab dose of 240 mg. It should be noted that a dose of 240 mg nivolumab is identical to a dose of 3 mg/kg for subjects weighing 80 kg, which is the approximate median body weight of NSCLC subjects in the 3 phase 2 and 3 clinical studies of nivolumab monotherapy in NSCLC patients (CA209017, CA209057, and CA209063).

previously treated NSCLC = details: cited from earlier work
[8] = test system: metastatic squamous cell NSCLC; details: CA209063, 117 patients; cited from earlier work
PD-1 = PD-1 (Homo sapiens, UniProt Q15116); design: endogenous in cells; details: across all doses 0.3 mg/kg to 10 mg/kg, 15 subjects; cited from earlier work
Sequence of PD-1 (Q15116 25-288): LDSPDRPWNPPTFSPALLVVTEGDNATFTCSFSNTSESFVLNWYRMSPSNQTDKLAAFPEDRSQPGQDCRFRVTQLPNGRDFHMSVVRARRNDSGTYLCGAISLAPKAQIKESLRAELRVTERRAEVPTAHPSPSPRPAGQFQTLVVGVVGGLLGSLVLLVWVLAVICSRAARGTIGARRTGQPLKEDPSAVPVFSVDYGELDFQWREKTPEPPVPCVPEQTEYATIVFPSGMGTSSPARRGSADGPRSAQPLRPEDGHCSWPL

[9] = monotherapy 3 mg/kg every 2 weeks, n=52
[10] = dose 3 (mg/kg), NSCLC subjects, estimated

## bevacizumab: monoclonal antibody that blocks vascular endothelial growth factor A (VEGF-A)
NSCLC
  median OS with maintenance therapy: ~13.9 month

## ipilimumab: fully human, IgG1 monoclonal antibody that blocks the binding of CTLA-4 to its B7 ligands
[1]; 0.3 mg/kg group
  drug related hypersensitivity events (Grade 1-2): 1.4%
[1]; 3 mg/kg group
  drug-related hypersensitivity events: no drug-related hypersensitivity events
[1]; 10 mg/kg group
  drug related hypersensitivity events (Grade 1-2): 2.8%
[1]; across the 3 treatment groups
  Grade 3-4 drug-related hypersensitivity events: no Grade 3-4 drug-related hypersensitivity events

## nivolumab
[2]; PD-L1+ tumors
  PFS rate at 24 weeks: 40%
  disease control rate (DCR, CR+PR+SD): 54%
  median OS: 19.1 months
[2]; PD-L1+ tumors (IHC >= 5%)
  overall response rate (ORR): 31%
[2]; PD-L1− tumors
  PFS rate at 24 weeks: 45%
  disease control rate (DCR, CR+PR+SD): 50%
  median OS: not reached
  overall response rate (ORR): 15%
[2]; [9]
  OS rate at 12 months: 74%
  PFS rate at 24 weeks: 41%
  disease control rate (DCR): 50%
  median PFS: 16 weeks
  median overall survival (OS): 22.6 months
  overall response rate (ORR): 23%
[3]; non-squamous
  24-week PFS rate: 42%
  objective response rate (ORR): 26%
[3]; squamous
  24-week PFS rate: 45%
  objective response rate (ORR): 22%
[4]
  IFN-7 secretion from CMV specific memory T cells: augmented IFN-7 secretion
[5]; Japanese subjects
  safety and tolerability: safe and well tolerated
[5]; monotherapy, every two weeks
  dose achieved without reaching the maximum tolerated dose (MTD): > 10 mg/kg
[5]; up to a dose level of 10 mg/kg
  safety and tolerability: safe and well tolerated
[6]; CA209017
  HR for overall survival vs docetaxel: 0.59
  median overall survival (OS): 9.6 months
  treatment-related deaths (grade 5 event): none
[6]; in vivo
  patients with a Grade 3-5 treatment-related event: 6.9%
[7]; 240 mg flat vs 3 mg/kg
  coefficient of variation (cv %) of exposure greater than that of 3 mg/kg dosing: < 10%
  geometric mean Cminss, Cmaxss and Cavgss with flat dosing higher than with 3 mg/kg: < 15%
[7]; comparison of PK parameters
  PK in global and Japanese subjects: similar
[7]; [10]
  Cavgss Geo. Mean: 73.3 (35.6)
  Cmaxss Geo. Mean: 118.9 (31.8)
  Cminss Geo. Mean: 54.7 (41.9)
[7]; dose range of 0.1 to 10 mg/kg, dose proportional exposures
  PK linearity: linear
[7]; flat dose 240 (mg), predicted
  Cavgss Geo. Mean: 82.4 (38.2)
  Cmaxss Geo. Mean: 133.7 (35.0)
  Cminss Geo. Mean: 61.5 (44.6)
[7]; in vivo
  half-life: up to 25 days
Previously treated NSCLC
  objective response rates: ~25%
  progression-free survival (PFS) rate at 24 weeks: ~45%
[8]
  overall response rate (ORR): 15%
PD-1
  mean PD-1 occupancy rate: 85%
  mean plateau occupancy: 72%

## Nc1nc2[nH]cc(CCc3ccc(C(=O)N[C@@H](CCC(=O)O)C(=O)O)cc3)c2c(=O)[nH]1 [pemetrexed]
NSCLC
  median OS with maintenance therapy: ~13.9 month

## gemcitabine/cisplatin
NSCLC; human, in vivo
  alopecia, all grades: 21%
  fatigue, Grade 3/4: 5%
  febrile neutropenia, Grade 3/4: 4%
  rate of Grade 3/4 anemia: 10%
  rate of Grade 3/4 neutropenia: 27%
  rate of Grade 3/4 thrombocytopenia: 13%
  vomiting, Grade 3/4: 6%

## paclitaxel/carboplatin
NSCLC; human, in vivo
  arthralgia, Grade 3/4: 6%
  fatigue, Grade 3/4: 5%
  febrile neutropenia, Grade 3/4: 3%
  neuropathy, Grade 2/3: 18%

## CC(=O)O[C@@]12CO[C@@H]1C[C@H](O)[C@@]1(C)C(=O)[C@H](O)C3=C(C)[C@@H](OC(=O)[C@H](O)[C@@H](NC(=O)OC(C)(C)C)c4ccccc4)C[C@@](O)([C@@H](OC(=O)c4ccccc4)[C@H]21)C3(C)C [docetaxel, reference compound]
[6]; CA209017
  median overall survival (OS): 6 months
  patients with a Grade 3-5 treatment-related event: Fifty-seven
  treatment-related deaths (grade 5 event): 3
NSCLC; second-line
  historical ORR: 8-10%
  historical median PFS: approximately 3 months
